Results: US11306122B2, “Compositions and methods of inhibiting the binding of plasma IgG autoantibodies to serotonin 2A receptor” (United States Government As Represented By The Department …, priority 2019, dated 2022)
Entries after “also recorded” stand apart in the source; their conditions may differ. Ends that are not written are not given here.

How the values were obtained:
N2a neuroblastoma cells = experiment: N2a cell survival with ZDF rat plasma protein G eluate; assay type: cell-based, mouse; conditions: 1 μM antagonist; 1 μg/mL (10 nM) eluate; 24 hours
Procedure: Plasma was applied to a Protein G affinity chromatography column (which binds most subclasses or rat IgG autoantibodies), washed extensively and eluted in low pH (2.7) buffer. The resulting eluate was incubated with N2a neuroblastoma cells at 37 degrees C. for 24 hours.

N2A cells = experiment: N2A cell loss (MTT) induced by TBI patient autoantibodies; assay type: cell-based, mouse
Procedure: Cell survival was determined with MTT assay.
Mouse neuroblastoma cell loss. N2A cell loss was quantified using an MTT (3-(4,5-dimethylthiazol-2-yl)-2,5-diphenyltetrazolium bromide) tetrazolium reduction assay after overnight incubation with autoantibodies from TBI patients (Zimering M B, Endocrinol Diabetes Metab J. 2019 August; 3(4) pii: 118. Epub 2019 Aug. 14).

[1] = tested on: N2A mouse neuroblastoma cells; experiment: Acute N2A neurite retraction induced by schizophrenia plasma autoantibodies; assay type: cell-based; conditions: for % AutoAB-induced neurite retraction: 20 nM Pt 1 schizophrenia AutoAB
Procedure: (§1) Methods: Plasma from five older adults with chronic schizophrenia and eight age-matched patients having another neuropsychiatric, immune or metabolic disorder was subjected to Protein-A affinity chromatography to obtain IgG autoantibodies. Mean neurite retraction (5 minutes) or cell survival (24 hours) was determined in mouse N2A neuroblastoma cells incubated with autoantibodies in the presence or absence of specific antagonists of the Gq/11/PLC/IP3R signaling pathway, Gi-coupled, beta-arrestin2-directed pathways, or LY379268.
Acute neurite retraction assay. Percent of basal neurite length in N2A cells expressing one or more proximally-located dendrite-like process was determined after interval exposure to test substances (Zimering M B, J Endocrinol Diabetes. 2018; 5(2): 10).
A twenty nanomolar concentration of protein-A eluate fraction of plasma from Pt 1 with schizophrenia was incubated with N2A cells in the presence or absence of the indicated concentration of each Gq/11, GPCR antagonist. Results are the mean+/−SD of two experiments.
A forty nanomolar concentration of plasma autoantibodies (AutoAB) from Pt 1 or Pt, schizophrenia, was incubated in the presence or absence of the indicated concentration of RhoA/Rho kinase (ROCK) inhibitor, or individual antagonists of the Gq11/PLC/IP3R signaling pathway. […]

[2] = tested on: mouse N2A neuroblastoma cells; experiment: Acute N2A neurite retraction induced by TBI patient 5-HT2A receptor autoantibodies; assay type: cell-based; conditions: for effect on TBI autoantibody-induced acute neurite retraction: M100907 250-500 nM, Y27632 10 μM, other concentrations as in Table 17; for % of autoantibody Neurite Retraction from TBI patients: 60 nM IgG of representative TBI patient
Procedure: Acute neurite retraction. Mouse N2A neuroblastoma cells were maintained in Dulbecco's minimal essential medium with 10% fetal calf serum. […] Neurite retraction represents average neurite length-shortening after five minutes exposure to TBI (5-HT2A receptor) autoantibodies (60-100 nM) in the presence or absence of various G-protein coupled receptor (GPCR) or signaling pathway antagonists.
A 60 nanomolar concentration of the IgG autoantibodies (e.g., 5-HT2A receptor autoantibodies) from a representative TBI patient was incubated with N2A cells in the presence or absence of the indicated concentration of the selective GPCR antagonist.
A 60 nanomolar concentration of 5-HT2A receptor autoantibodies from TBI patients was incubated with N2A cells in the presence or absence of the indicated concentration of Gq11/PLC-gamma/IP3R antagonist or RhoA/Rho kinase pathway inhibitor.
Neurovascular 5-hydroxytryptamine (serotonin) 2A receptor (5-HT2AR) autoantibodies were previously reported to function as long-acting agonists in diabetic angiopathy and subsets of major depression, Parkinson's disease or dementia. The 5-HT2A receptor is highly expressed in specific brain regions underlying cognition, perception and mood regulation. Long-lasting 5-HT2A receptor activation by circulating autoantibodies might contribute to pathophysiology via central and peripheral mechanisms. Since the risk or incidence of Parkinson's disease, depression and dementia increase following traumatic brain injury (TBI), circulating neurotoxic autoantibodies (e.g., 5HT2AR) were tested, characterized and compared with autoantibodies from TBI patients vs. diabetic subsets with or without neurodegenerative disorders. Plasma IgG autoantibodies (e.g., 5-HT2AR autoantibodies) were obtained by protein-A affinity chromatography in ten male TBI patients mean age 64 years old.

[3] = tested on: N2A mouse neuroblastoma cells; experiment: N2A cell survival (MTT) promoted by schizophrenia/psychosis plasma autoantibodies; assay type: cell-based; conditions: M100907 500 nM; LY379268 5 μM; pertussis toxin 100 ng/mL; LY294002 20 μM; 24 hours
Procedure: as §1
N2A cell survival. MTT assay was performed 24 hours after incubation with test substances (Zimering M B, J Endocrinol Diabetes. 2018; 5(2): 10).
Serotonin 2A receptor activation leads to f3-arrestin-2-mediated desensitization and receptor internalization. However, β-arrestin-2 can also couple with diverse signaling pathways leading to enhanced cell proliferation and/or survival promotion.

[4] = Observation of side effects and sedation in ZDF rats; assay type: in vivo, Zucker diabetic fatty (ZDF) rat
Procedure: Normally these rats will feed nearly continuously when given the opportunity. This sedating effect was reproducible following a second IP injection of 1 mg of the SEQ ID NO: 2 in each of the 3 ZDR rats. […] Serotonin plays a major role in wakefulness and arousal in the nervous system. It is possible that the administration of SEQ ID NO: 2 blocks the action of the neurotransmitter serotonin at multiple sites in the periphery and in the central nervous system, inducing sleep via antagonism of serotonin's role in wakefulness/arousal, independent of the pronounced blood pressure-lowering effect.

[5] = Blood glucose in ZDF rats; assay type: in vivo, Zucker diabetic fatty (ZDF) rat

Compound	effect on accelerated neuroblastoma cell death induced by ZDF rat protein G eluate (N2a neuroblastoma cells)	effect alone on N2A cell survival (N2A cells; 250 nM-500 nM, without autoantibodies)	effect on accelerated N2A cell death/loss by TBI autoantibodies (N2A cells; M100907 250 nM (eight of eight patients), prazosin 850 nM (n=5), one-fiftieth dilution, 24 hours)	effect on LY379268-potentiated SCZ autoantibody-induced neurite retraction ([1]; M100907 500 nM)	effect on schizophrenia autoantibody-induced neurite retraction ([1]; M100907 two-hundred nanomolar, Y27632 ten micromolar, Y254890 one micromolar)	% AutoAB-induced neurite retraction ([1]; antagonist 200 nM)	prevention of mean neurite retraction in TBI patient 5-HT2AR autoantibodies ([2]; M100907 200-670 nM, n=10 TBI patients, retraction alone 52±10%)	effect on TBI autoantibody-induced acute neurite retraction [2]	% of autoantibody Neurite Retraction from TBI patients ([2]; antagonist 250 nM)	effect on autoantibody-induced N2A pro-survival/proliferation (words) [3]	vomiting or other side effects during and for 15 days after administration ([4]; ZDF rats, alternate daily 2 mg/kg IP)	side effects eighteen days after injection ([4]; three ZDF rats, approximately 1 mg single intraperitoneal injection)	effect of repeated peptide injections on blood glucose concentration [5]	% AutoAB-induced neurite retraction ([1]; antagonist 500 nM)	% of autoantibody Neurite Retraction from TBI patients ([2]; antagonist 400 nM)
COc1cccc([C@H](O)C2CCN(CCc3ccc(F)cc3)CC2)c1OC [Peptide M100907]	significantly reduced; also recorded: significant protection	no significant effect	substantially prevented; also recorded: nearly completely prevented	significantly prevented	completely prevented	0 ± 0%	89-91%	substantially prevented; also recorded: completely or nearly completed prevented	0%	significantly blocked	–	–	–	–	–
SCLLADDN [Peptide 2]	–	–	–	–	–	–	–	–	–	–	did not experience vomiting or any other side effects	no untoward side effects were observed	no evidence that the peptide injections caused a significant increase in blood glucose concentration	–	–
O=C(CCCN1CCC2(CC1)C(=O)NCN2c1ccccc1)c1ccc(F)cc1 [Spiperone]	significantly reduced; also recorded: significant protection	–	–	–	–	–	–	substantially blocked	–	–	–	–	–	17 ± 6%	20%
